Peptide text beside a SMILES is read from it.

The subject of this series is healthy male volunteers. The series is described as follows: Phase 1 single rising dose clinical safety study. The class given is in vivo, human. The source says:
Primary objective: to study the safety and tolerability of F991 at increasing single dose levels in healthy male volunteers
Design: This study was a double-blind, placebo-controlled, single rising dose study in two alternating panels of eight healthy male volunteers. In each panel, two volunteers received placebo throughout the study and the other six volunteers received three increasing single doses of F991.
Safety assessments: vital signs; adverse events (including eyesight); ECG four times each period; clinical laboratory: on admission for each period
Panel I: period 1: 0.08 mg/kg F991 or placebo iv infusion • period 2: 0.8 mg/kg F991 or placebo iv infusion • period 3: 3.2 mg/kg F991 or placebo iv infusion
Panel II: period 1: 0.32 mg/kg F991 or placebo iv infusion • period 2: 1.6 mg/kg F991 or placebo iv infusion • period 3: 6.4 mg/kg F991 or placebo iv infusion Criteria for Evaluation
Safety: adverse events, clinical laboratory test results, ECG recordings, vital signs and physical examination

Where [1] appears, read: single i.v. doses 0.08-6.4 mg/kg.

Turning to `CC(C)C[C@H](NC(=O)[C@H](CS)NC(=O)[C@H](CS)NC(=O)[C@H](Cc1c[nH]cn1)NC(=O)CNC(=O)[C@H](CO)NC(=O)[C@H](Cc1c[nH]c2ccccc12)NC(=O)[C@H](Cc1c[nH]cn1)NC(=O)[C@H](C)N)C(=O)O` [F991] (H-AHWSGHCCL-OH), where the note is “I.V. single rising doses up to 6.4 mg/kg”, the safety and tolerability result is “safe and well tolerated”. Moreover, under setting [1], the “SAEs during the study” value was “no SAEs”; the “clinical laboratory data, vital signs, ECG and physical examination” value is listed as “no clinically significant abnormalities”; the “correlation between dose and number, frequency and intensity of AEs” value is on record as “No correlation”; the “most frequently reported AEs for volunteers on active drug” value is reported as “eye disorders”.

The record behind these values is US20050191290A1, “Means and methods for manipulating hypersensitivity-like responses” (priority 2002, published 2005).
